Among the data in patent publication US20240109900A1, “AZABICYCLIC SHP2 INHIBITORS” (IRBM S.P.A., priority 2021, published 2024) are IC50 values, retold here.

Experiment [1] concerns the target SHP-2 enzyme (Met1-Leu525) (Homo sapiens (Human), UniProt Q06124). The experiment is described as follows: SHP2 inhibition enzymatic assay. The class given is biochemical. Conditions: 0.5 nM SHP-2 activated by 500 nM IRS1 peptide, 75 μM DiFMUP substrate; read-out: SHP2wt-IC50. The gist of the method: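 Compounds were preincubated 30 min with 0.5 nM SHP-2 (Met1-Leu525) plus 500 nM IRS1 activating peptide (pH 7.2 HEPES, 5 mM DTT), then 75 μM DiFMUP substrate reacted 30 min at room temperature. After bpV quench, DiFMUP fluorescence gave % inhibition; four-parameter logistic fit yielded IC50.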

For experiment [2], the system named is ERK phosphorylation in KYSE-520 cells. As to the kind of experiment: Phospho-ERK cellular assay. It is filed as cell-based. The note with it: Homo sapiens, KYSE-520, 2 h, KYSE-520 cells, 2 h at 37° C., phospho-ERK1/2 (Thr202/Tyr204) TR-FRET; read-out: PERK IC50. Summed up:
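TR-FRET read-out of ERK1/2 Thr202/Tyr204 phosphorylation was taken after overnight antibody incubation at room temperature. Before that, KYSE-520 cells were treated 2 h at 37 °C with compound dilutions and lysed 30 min. Percent inhibition relative to vehicle and cell-free wells was fitted four-parametrically to give IC50.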
On the technique in general: Time-resolved FRET reads energy transfer from a long-lived donor to a nearby acceptor.

Molecules are shown by their SMILES.

SHP-2 enzyme (Met1-Leu525), sequence (Q06124 1-525): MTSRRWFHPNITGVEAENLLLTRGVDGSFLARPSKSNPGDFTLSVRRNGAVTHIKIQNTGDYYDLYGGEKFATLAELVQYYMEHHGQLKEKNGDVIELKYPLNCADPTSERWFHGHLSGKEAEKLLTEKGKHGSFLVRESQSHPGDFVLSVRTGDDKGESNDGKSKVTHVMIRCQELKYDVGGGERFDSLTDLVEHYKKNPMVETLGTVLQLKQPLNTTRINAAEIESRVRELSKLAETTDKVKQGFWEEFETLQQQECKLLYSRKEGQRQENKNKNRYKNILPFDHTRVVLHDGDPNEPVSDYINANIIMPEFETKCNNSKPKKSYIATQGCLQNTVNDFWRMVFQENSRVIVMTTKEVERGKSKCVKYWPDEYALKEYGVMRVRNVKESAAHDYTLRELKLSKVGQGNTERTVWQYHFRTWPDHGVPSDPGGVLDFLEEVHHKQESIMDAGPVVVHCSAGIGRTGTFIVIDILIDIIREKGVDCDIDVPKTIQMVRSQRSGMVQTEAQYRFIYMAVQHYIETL

As to `Cn1cc2c(Cl)c(-c3n[nH]c4nc(N5CC[C@@H]6[C@H](C5)[C@@]6(CN)c5cc(F)cc(F)c5)cnc34)ccc2n1` [Example 291, ((1S,6R,7R)-3-(3-(4-chloro-2-methyl-2H-indazol-5-yl)-1H-pyrazolo[3,4-b]pyrazin-6-yl)-7-(3,5-difluorophenyl)-3-azabicyclo[4.1.0]heptan-7-yl)methanamine], the IC50 in experiment [1] was below 500 nM; in experiment [2] it was below 1000 nM.
Regarding `NC[C@]1(c2ccccc2F)[C@@H]2CCN(c3cnc4c(-c5ccnc6c(F)cccc56)n[nH]c4n3)C[C@@H]21` [Example 132, ((1S,6R,7R)-7-(2-fluorophenyl)-3-(3-(8-fluoroquinolin-4-yl)-1H-pyrazolo[3,4-b]pyrazin-6-yl)-3-azabicyclo[4.1.0]heptan-7-yl)methanamine], the IC50 is below 500 nM in experiment [1] and below 1000 nM in experiment [2].
As for `NC[C@]1(c2ccccc2F)[C@@H]2CCN(c3cnc4nc(-c5ccnc(-n6cccn6)c5)ccc4n3)C[C@@H]21` [Example 530, ((1S,6R,7R)-3-(6-(2-(1H-pyrazol-1-yl)pyridin-4-yl)pyrido[2,3-b]pyrazin-2-yl)-7-(2-fluorophenyl)-3-azabicyclo[4.1.0]heptan-7-yl)methanamine], the IC50 is below 500 nM in experiment [1] and above 5000 nM in experiment [2].
As for `Cn1cc2c(Cl)c(-c3c[nH]c4nc(N5CC[C@@H]6[C@H](C5)[C@@]6(CN)c5ccccc5F)n(C)c(=O)c34)ccc2n1` [Example 378, 2-((1S,6R,7R)-7-(aminomethyl)-7-(2-fluorophenyl)-3-azabicyclo[4.1.0]heptan-3-yl)-5-(4-chloro-2-methyl-2H-indazol-5-yl)-3-methyl-3,7-dihydro-4H-pyrrolo[2,3-d]pyrimidin-4-one], the IC50 in experiment [1] is below 500 nM; in experiment [2], below 1000 nM.
For `Cn1cc2c(Cl)c(Sc3cnc(N4CC[C@@H]5[C@H](C4)[C@@]5(CN)c4ccccc4F)cn3)ccc2n1` [Example 427, ((1S,6R,7R)-3-(5-((4-chloro-2-methyl-2H-indazol-5-yl)thio)pyrazin-2-yl)-7-(2-fluorophenyl)-3-azabicyclo[4.1.0]heptan-7-yl)methanamine], the IC50 was below 500 nM in experiment [1] and below 1000 nM in experiment [2].
The corresponding values for `NC[C@]1(c2ccccc2F)[C@@H]2CCN(c3cnc4c(-c5cc(N)ncc5Cl)n[nH]c4n3)C[C@@H]21` [Example 196, 4-(6-((1S,6R,7R)-7-(aminomethyl)-7-(2-fluorophenyl)-3-azabicyclo[4.1.0]heptan-3-yl)-1H-pyrazolo[3,4-b]pyrazin-3-yl)-5-chloropyridin-2-amine] are below 500 nM and below 1000 nM.
For `NCC1(c2nc(Cl)cs2)C2CCN(c3cnc4c(-c5ccc(F)c6ncccc56)n[nH]c4n3)CC21` (stereo not drawn) [Example 446, (7-(4-chlorothiazol-2-yl)-3-(3-(8-fluoroquinolin-5-yl)-1H-pyrazolo[3,4-b]pyrazin-6-yl)-3-azabicyclo[4.1.0]heptan-7-yl)methanamine] the same measures were below 500 nM and below 1000 nM.
The corresponding values for `CNC(=O)C1(CN)C2CCN(c3cnc4c(-c5ccc6nn(C)cc6c5Cl)n[nH]c4n3)CC21` (stereo not drawn) [Example 287, 7-(aminomethyl)-3-(3-(4-chloro-2-methyl-2H-indazol-5-yl)-1H-pyrazolo[3,4-b]pyrazin-6-yl)-N-methyl-3-azabicyclo[4.1.0]heptane-7-carboxamide] are below 500 nM and below 1000 nM.
Regarding `Cc1csc([C@@]2(CN)[C@@H]3CCN(c4cnc5c(-c6cc7ccnn7cc6Cl)n[nH]c5n4)C[C@@H]32)n1` [Example 481, ((1S,6R,7S)-3-(3-(6-chloropyrazolo[1,5-a]pyridin-5-yl)-1H-pyrazolo[3,4-b]pyrazin-6-yl)-7-(4-methylthiazol-2-yl)-3-azabicyclo[4.1.0]heptan-7-yl)methanamine], the IC50 in experiment [1] is below 500 nM; in experiment [2], below 1000 nM.
For `NC[C@]1(c2ccccc2F)[C@@H]2CCN(c3cnc4c(N5CCCc6ncccc65)n[nH]c4n3)C[C@@H]21` [Example 169, ((1S,6R,7R)-3-(3-(3,4-dihydro-1,5-naphthyridin-1(2H)-yl)-1H-pyrazolo[3,4-b]pyrazin-6-yl)-7-(2-fluorophenyl)-3-azabicyclo[4.1.0]heptan-7-yl)methanamine], the IC50 is below 500 nM in experiment [1] and below 1000 nM in experiment [2].
The corresponding values for `Cc1csc(C2(CN)C3CCN(c4cnc5c(-c6cccc(Cl)c6Cl)n[nH]c5n4)CC32)n1` (stereo not drawn) [Example 77, (3-(3-(2,3-dichlorophenyl)-1H-pyrazolo[3,4-b]pyrazin-6-yl)-7-(4-methylthiazol-2-yl)-3-azabicyclo[4.1.0]heptan-7-yl)methanamine] are below 500 nM and below 1000 nM.
The corresponding values for `Cc1cc([C@@]2(CN)[C@@H]3CCN(c4cnc5c(-c6cncc7ncccc67)n[nH]c5n4)C[C@@H]32)no1` [Example 148, ((1S,6R,7S)-3-(3-(1,7-naphthyridin-5-yl)-1H-pyrazolo[3,4-b]pyrazin-6-yl)-7-(5-methylisoxazol-3-yl)-3-azabicyclo[4.1.0]heptan-7-yl)methanamine] are below 500 nM and below 1000 nM.
For `Cc1nc([C@@]2(CN)[C@@H]3CN(c4cnc5c(-c6ccc7nn(C)cc7c6Cl)n[nH]c5n4)C[C@@H]32)co1` [Example 514, ((1R,5S,6r)-3-(3-(4-chloro-2-methyl-2H-indazol-5-yl)-1H-pyrazolo[3,4-b]pyrazin-6-yl)-6-(2-methyloxazol-4-yl)-3-azabicyclo[3.1.0]hexan-6-yl)methanamine] the same measures were below 500 nM and below 1000 nM.
Take `NC[C@]1(c2ccccc2F)[C@@H]2CCN(c3cnc4c(-c5cccc(-c6cnccn6)c5Cl)n[nH]c4n3)C[C@@H]21` [Example 158, ((1S,6R,7R)-3-(3-(2-chloro-3-(pyrazin-2-yl)phenyl)-1H-pyrazolo[3,4-b]pyrazin-6-yl)-7-(2-fluorophenyl)-3-azabicyclo[4.1.0]heptan-7-yl)methanamine]: the IC50 in experiment [1] is below 500 nM; in experiment [2] it was below 1000 nM.
As for `Cn1cc2c(Cl)c(-c3n[nH]c4nc(N5C[C@@H]6[C@H](C5)[C@@]6(CN)c5ccc(F)cn5)cnc34)ccc2n1` [Example 495, ((1R,5S,6r)-3-(3-(4-chloro-2-methyl-2H-indazol-5-yl)-1H-pyrazolo[3,4-b]pyrazin-6-yl)-6-(5-fluoropyridin-2-yl)-3-azabicyclo[3.1.0]hexan-6-yl)methanamine], the IC50 in experiment [1] was below 500 nM; in experiment [2] it was below 1000 nM.
The corresponding values for `Cc1cc(-c2n[nH]c3nc(N4CC[C@@H]5[C@H](C4)[C@@]5(CN)c4ccccc4F)cnc23)ccc1C(N)=O` [Example 246, 4-(6-((1S,6R,7R)-7-(aminomethyl)-7-(2-fluorophenyl)-3-azabicyclo[4.1.0]heptan-3-yl)-1H-pyrazolo[3,4-b]pyrazin-3-yl)-2-methylbenzamide] are below 500 nM and below 1000 nM.
For `Cc1cc(C(N)=O)ccc1-c1n[nH]c2nc(N3CC[C@@H]4[C@H](C3)[C@@]4(CN)c3ccccc3F)cnc12` [Example 250, 4-(6-((1S,6R,7R)-7-(aminomethyl)-7-(2-fluorophenyl)-3-azabicyclo[4.1.0]heptan-3-yl)-1H-pyrazolo[3,4-b]pyrazin-3-yl)-3-methylbenzamide] the same measures were below 500 nM and below 1000 nM.
For `Cc1c(-c2n[nH]c3nc(N4CC[C@@H]5[C@H](C4)[C@@]5(CN)c4ccccc4F)cnc23)ccc2[nH]c(=O)[nH]c12` [Example 259, 5-(6-((1S,6R,7R)-7-(aminomethyl)-7-(2-fluorophenyl)-3-azabicyclo[4.1.0]heptan-3-yl)-1H-pyrazolo[3,4-b]pyrazin-3-yl)-4-methyl-1,3-dihydro-2H-benzo[d]imidazol-2-one] the same measures were below 500 nM and below 1000 nM.
For `Cc1cc([C@@]2(CN)[C@@H]3CCN(c4cnc5c(-c6cccc7c6OCCO7)n[nH]c5n4)C[C@@H]32)no1` [Example 40, ((1S,6R,7S)-3-(3-(2,3-dihydrobenzo[b][1,4]dioxin-5-yl)-1H-pyrazolo[3,4-b]pyrazin-6-yl)-7-(5-methylisoxazol-3-yl)-3-azabicyclo[4.1.0]heptan-7-yl)methanamine], the results for the IC50 in experiment [1] and in experiment [2] were below 500 nM and below 1000 nM, respectively.
The corresponding values for `NC[C@]1(c2ccccc2F)[C@@H]2CCN(c3cnc4c(-c5ccc6cc(Cl)cnc6c5)n[nH]c4n3)C[C@@H]21` [Example 255, ((1S,6R,7R)-3-(3-(3-chloroquinolin-7-yl)-1H-pyrazolo[3,4-b]pyrazin-6-yl)-7-(2-fluorophenyl)-3-azabicyclo[4.1.0]heptan-7-yl)methanamine] are below 500 nM and above 5000 nM.
For `NC[C@]1(c2ccccc2F)[C@@H]2CCN(c3cnc4c(-c5ccc(F)c6ncccc56)n[nH]c4n3)C[C@@H]21` [Example 376, ((1S,6R,7R)-7-(2-fluorophenyl)-3-(3-(8-fluoroquinolin-5-yl)-1H-pyrazolo[3,4-b]pyrazin-6-yl)-3-azabicyclo[4.1.0]heptan-7-yl)methanamine] the same measures were below 500 nM and below 1000 nM.

For orientation: IC50 means the midpoint of a concentration-inhibition curve.
